Data as given in ChEMBL document CHEMBL1150092, “Isolation and characterization of cytotoxic and antibacterial tetrasaccharide glycosides from Ipomoea stans” (1995).
≈ marks a conversion by molar mass, not a printed value.

Columns and labels:
P388 = assay: Cytotoxicity against mouse P388 cells; type: functional; conditions: read-out: ED50 (the source's name)
Bacillus subtilis = assay: Antimicrobial activity against Bacillus subtilis ATCC 6633; type: functional, organism-based
Staphylococcus aureus = assay: Antimicrobial activity against Staphylococcus aureus ATCC 6538; type: functional, organism-based

CCCCC[C@H]1CCCCCCCCCC(=O)O[C@H]2[C@H](O)[C@@H](CO)O[C@@H](O[C@H]3[C@H](O1)O[C@H](C)[C@H](O)[C@@H]3O)[C@@H]2O[C@@H]1O[C@@H](C)[C@H](OC(=O)[C@@H](C)CC)[C@@H](O[C@@H]2O[C@@H](C)[C@H](O)[C@@H](O)[C@H]2O)[C@H]1OC(=O)[C@@H](C)CC [TRICOLORIN A]
EC50 (P388): 2.2 µg/mL (≈ 2.15 µM)

NYSTATIN
MIC (Bacillus subtilis): 16 µg/mL
MIC (Staphylococcus aureus): 8 µg/mL
